# Source: publication PMC11809180, “RA-PR058, a novel ramalin derivative, reduces BACE1 expression and phosphorylation of tau in Alzheimer’s disease mouse models” (Animal Cells and Systems, 2025)
# Legend:
# [1] = test system: 5xFAD hippocampal neurons; assay: vGlut1-pHluorin (vG-pH) synaptic transmission assay in primary hippocampal neurons; format: cell-based, mouse
# Method: Hippocampal CA1-CA3 regions were isolated from postnatal (0–3 d old) 5xFAD mice. For dissociation, the dissected tissues were incubated with trypsin (Sigma) and DNase (Sigma) for 10 minutes at 37 ℃, followed by gentle trituration with pipette. 4.0–5.0 × 10^4 cells were plated on poly-ornithine-coated coverslips. Cells were maintained in culture media consisting of Neurobasal™-A Medium (Gibco) supplemented with GlutaMAX™ Supplement (Gibco) and B-27™ Supplement (Gibco) in a humidified incubator set at 37 ℃ with 5% CO2. Neurons were transfected 7 days after plating and further incubated for 14–21 days in culture medium. All results are obtained from at least three independent primary cultures. […]
# For optical imaging, primary cultured hippocampal neurons were transfected with vGlut1-pHluorin (vG-pH) using the Ca^2+ phosphate precipitation method, as previously described (Bae et al. ([2020])). […] Fluorescence excitation/emission and collection were achieved using a 40 × Fluar Zeiss objective lens (1.3 NA) and 500–550 nm emission and 498 nm dichroic filters (Chroma). […]
# All images were analyzed using ImageJ with plugin Time Series Analyzer. Synaptic boutons were selected as oval regions of interest (diameter, 10 pixels), and the intensity of fluorescence at synapses was measured. Fluorescence traces were analyzed using Origin Pro.
# [2] = test system: JNK; assay: JNK phosphorylation in cortex of 3xTg-AD mice (western blot); format: in vivo, mouse; details: 20 mg/kg oral daily 4 weeks, p-JNK normalized with JNK
# Method: 3xTg-AD (B6;129-Tg(APPSwe,tauP301L)1Lfa Psen1^tm1Mpm/Mmjax) mice and their littermate wild-type (WT) mice were used in this study. Each experimental group consisted of 4–8 mice, with groups designated as WT, 3xTg-AD Vehicle, and 3xTg-AD RA-PR058. All mice were maintained in a 12-hour light/dark cycle with free access to food and water. 7-month-old age of mice were administered with 20 mg/kg of RA-PR058 orally once a day for 1 month followed by the elevated plus maze test. All animal experimental procedures were approved by the Institutional Animal Care and Use Committee of Sungkyunkwan University (SKKUIACUC2022-10-41-1).
# After EPM was conducted, mice were sacrificed, and brain tissues were collected as previously described (Park et al. [2021]). Mice were anesthetized by injecting Zoletil (Virbac) and Rompun (Bayer) intraperitoneally. After mice were anesthetized, they were perfused with phosphate-buffered saline (PBS). Then, brains were extracted and cut into two hemispheres; one hemisphere was preserved in 4% paraformaldehyde and the other was dissected into the cortex and hippocampus. […]
# Samples for western blot analysis were prepared as previously described (Gwon et al. [2012]). […] Protein concentrations were measured using Pierce™ BCA Protein Assay Kits (Thermo Fisher Scientific). […] Protein bands were quantified using ImageJ (NIH).
smiles,measurement,setting,value
"Cl.N[C@@H](CCC(=O)NNc1ccccc1F)C(F)F [RA-PR058, (S)-4-amino-5,5-difluoro-N'-(2-fluorophenyl)pentanehydrazide hydrochloride]",Recovery of synaptic transmission dysfunction,"[1]; 5xFAD hippocampal neurons, 10 μM RA-PR058, 100 AP at 10 Hz, did not reach statistical significance",partially recovered
same,Mean amplitude of 100AP vG-pH response,"[1]; RA-PR058 treated 5xFAD hippocampal neurons, 10 Hz for 10 s, normalized to maximal NH4Cl response, mean ± SEM, n = 6, untreated 5xFAD 0.11 ± 0.01, WT 0.20 ± 0.01",0.15 ± 0.03
same,JNK phosphorylation,[2],significantly downregulated
